These results are taken from PMC8700061, “Fragment-Sized and Bidentate (Immuno)Proteasome Inhibitors Derived from Cysteine and Threonine Targeting Warheads” (Cells, 2021).

Holding throughout (type): biochemical
One experiment addresses T1, β1 subunit of human cCP (Homo sapiens, UniProt P28072+Q99436).
T1 construct: purchased Boston Biochem, Inc., Cambridge, MA, USA
The experiment in a line: Inhibition of β1 activity (RA, IC50), Ac-nLPnLD-AMC. As to conditions: PA28α; for IC50: 30 min pre-incubation. As for the experimental part:
(§1) Residual activity measurements were performed at 10 μM final concentrations in the assay buffer (0.01% SDS, 50 mM Tris-HCl, 0.5 mM EDTA, pH 7.4). Stock solutions of the compounds were prepared in DMSO. To 50 μL of each compound in buffer, 25 μL of 0.8 nM human iCP or human cCP (both from Boston Biochem, Inc., Cambridge, MA, USA) were added. After incubation at 37 °C for 30 min, the reaction was started by adding of 25 μL of 100 μM relevant fluorogenic substrate: acetyl-Nle-Pro-Nle-Asp-AMC (Ac-nLPnLD-AMC, (Bachem, Bubendorf, Switzerland)) for β1, acetyl-Pro-Ala-Leu-7-amino-4-methylcoumarin (Ac-PAL-AMC, (Boston Biochem, Inc., Cambridge, MA, USA)) for β1i, t-butyloxycarbonyl-Leu-Arg-Arg-7-amino-4-methylcoumarin (Boc-LRR-AMC, (Bachem, Bubendorf, Switzerland)) for β2 and β2i, succinyl-Leu-Leu-Val-Tyr-7-amino-4-methylcoumarin (Suc-LLVY-AMC) (Bachem, Bubendorf, Switzerland) for β5 and β5i. Reaction progress was recorded on BioTek Synergy HT microplate reader by monitoring fluorescence at 460 nm (λex = 360 nm) for 90 min at 37 °C. The initial linear ranges were used to calculate velocity and determine residual activity. In the case of evaluation of β1, βi, β2, and β2i activities, the assay buffer was modified by replacing SDS with the proteasomal activator PA28α (Boston Biochem, Inc., Cambridge, MA, USA).
Final assay mixtures contained 0.2 nM human iCP or 0.2 nM human cCP in assay buffer (0.01% SDS (or PA28α in cases of β1, β1i subunits), 50 mM Tris-HCl, 0.5 mM EDTA, pH 7.4). Inhibitors were dissolved in DMSO and added to the black 96-well plates for at least eight different concentrations (the final concentration of DMSO was not more than 1%). After 30 min of incubation at 37 °C, the reaction was started by adding the substrate Suc-LLVY-AMC (for β5 and β5i) or Ac-nLPnLD-AMC (for β1) or Ac-PAL-AMC (for β1i). Fluorescence was monitored at 460 nm (λex = 360 nm) for 90 min at 37 °C. The progress of the reactions was recorded and the initial linear ranges were used to calculate the velocity. IC50 values were calculated using GraphPadPrism (GraphPad Software, San Diego, CA, USA) and are means from at least three independent determinations.

The next experiment deals with T2, β2i subunit of human iCP (Homo sapiens, UniProt P40306+P49720).
T2 construct: purchased Boston Biochem, Inc., Cambridge, MA, USA
Nature of the experiment: Residual β2i activity, Boc-LRR-AMC. The note with it: 10 µM, PA28α. The method, then: as §1

For the next experiment, the target named is T3, hMAO-B (Homo sapiens, UniProt P27338).
T3 construct: purchased Sigma Aldrich; host or cells: BTI-TN-5B1-4 insect cells
T3 sequence (P27338 1-520): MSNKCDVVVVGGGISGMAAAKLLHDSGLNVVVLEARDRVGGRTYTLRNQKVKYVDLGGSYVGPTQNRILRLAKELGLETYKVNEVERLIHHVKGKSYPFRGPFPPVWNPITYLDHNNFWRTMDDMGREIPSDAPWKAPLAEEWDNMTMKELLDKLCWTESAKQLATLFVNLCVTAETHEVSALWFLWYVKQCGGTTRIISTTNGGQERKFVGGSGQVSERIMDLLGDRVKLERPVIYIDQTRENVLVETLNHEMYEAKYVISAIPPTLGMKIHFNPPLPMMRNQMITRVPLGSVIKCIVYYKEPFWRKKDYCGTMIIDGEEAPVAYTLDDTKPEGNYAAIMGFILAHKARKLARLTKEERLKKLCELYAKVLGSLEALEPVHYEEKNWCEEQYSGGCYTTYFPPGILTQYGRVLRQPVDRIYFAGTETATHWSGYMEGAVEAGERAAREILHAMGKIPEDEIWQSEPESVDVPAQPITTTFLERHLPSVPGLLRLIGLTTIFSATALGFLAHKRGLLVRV
The experiment in a line: Monoamine oxidase assay, hMAO-B. The note with it: 30 min pre-incubation, read-out: Residual activity [%] ± SD, hMAO-B. The method, then:
The effects of the test compounds on hMAO were investigated using fluorimetric assay. Recombinant hMAO-A and hMAO-B, expressed in BTI-TN-5B1-4 insect cells, horseradish peroxidase type II and p-tyramine hydrochloride were purchased from Sigma Aldrich. Amplex Red was synthesized as previously described.
Briefly, 50 mM sodium phosphate buffer (pH = 7.4, 0.05 vol.% Triton X-114) containing the compounds or the reference inhibitors and hMAO were incubated at 37 °C for 30 min. The reaction was started by adding Amplex Red (final concentration, 250 µM), horseradish peroxidase (final activity, 1 U/mL), and p-tyramine (final concentration, 1 mM). The increase in fluorescence (λex = 530 nm, λem = 590 nm) was monitored for 30 min at 37 °C. DMSO at a concentration of 1.5% (v/v) was used for the control experiments. For the determination of blank (b), the enzyme was replaced by phosphate-buffered solution. Each measurement was performed in duplicate. Inhibitory potencies were expressed as residual activities (RA), as described under the Cholinesterase assay section.

With `COc1cccc2oc(C#N)nc12` [Compound 6], the “β1 (RA [%])” value at β1 subunit of human cCP (10 µM, Table 3) came out at 82%. Besides, the “β2i (RA [%])” value at β2i subunit of human iCP (Table 3) is “NA (NA, Not active (RA above 90%))”. On hMAO-B, the remaining activity at 100 µM was 35 ± 1%.
`N#Cc1nc2c(O)cccc2o1` [Compound 10]: the remaining activity at 10 µM on β1 subunit of human cCP (10 µM, Table 3) was more than 90%. Besides, the “β2i (RA [%])” value at β2i subunit of human iCP (Table 3) is “NA (NA, Not active (RA above 90%))”. The remaining activity at 100 µM at hMAO-B is more than 50%.
With `N#Cc1nc2cc(O)ccc2o1` [Compound 11], at β1 subunit of human cCP (10 µM, Table 3), the remaining activity at 10 µM is more than 90%. Also, the “β2i (RA [%])” value at β2i subunit of human iCP (Table 3) is reported as “NA (NA, Not active (RA above 90%))”. In addition, the remaining activity at 100 µM at hMAO-B turned out to be 29%.
For `N#Cc1nc2cccc(O)c2o1` [Compound 13], in that order: 76%, 83% and more than 50%.
As to `CC(=O)Oc1cccc2oc(C#N)nc12` [Compound 14], on β1 subunit of human cCP (10 µM, Table 3), the remaining activity at 10 µM is more than 90%. For the same molecule, on β2i subunit of human iCP (Table 3), the “β2i (RA [%])” value was “NA (NA, Not active (RA above 90%))”. For the same molecule, at hMAO-B, the remaining activity at 100 µM was more than 50%.
On to `CC(=O)Oc1ccc2oc(C#N)nc2c1` [Compound 15], for which, on β1 subunit of human cCP (10 µM, Table 3), the remaining activity at 10 µM was more than 90%. For the same molecule, at β2i subunit of human iCP (Table 3), the “β2i (RA [%])” value is reported as “NA (NA, Not active (RA above 90%))”. The remaining activity at 100 µM on hMAO-B came to 33%.
Consider `C=Cc1nc(CC(=O)N[C@@H](CC(C)C)B2O[C@@H]3C[C@@H]4C[C@@H](C4(C)C)[C@]3(C)O2)cs1` [Compound 28], for which, at β1 subunit of human cCP, the half-maximal inhibitory concentration (IC50) (usually the concentration that inhibits the measured activity by half) amounted to 4.8 ± 0.2 µM. Besides, the “β2i (RA [%])” value on β2i subunit of human iCP (Table 6) was “NA (NA, Not active (RA above 95%))”. The remaining activity at 100 µM on hMAO-B is more than 50%.
As to `CC(C)C[C@H](NC(=O)CCn1c(C#N)nc2ccccc21)B1O[C@@H]2C[C@@H]3C[C@@H](C3(C)C)[C@]2(C)O1` [Compound 30], at β1 subunit of human cCP, the IC50 is 0.4 µM. For the same molecule, on β2i subunit of human iCP (Table 6), the “β2i (RA [%])” value is recorded as “NA (NA, Not active (RA above 95%))”. The remaining activity at 100 µM on hMAO-B is more than 50%.
In the case of `CC(C)C[C@H](NC(=O)CCCn1c(C#N)nc2ccccc21)B1O[C@@H]2C[C@@H]3C[C@@H](C3(C)C)[C@]2(C)O1` [Compound 31], the concentration for half-maximal inhibition (IC50) on β1 subunit of human cCP was determined as 8.4 ± 1.6 µM. For the same molecule, the “β2i (RA [%])” value at β2i subunit of human iCP (Table 6) is “NA (NA, Not active (RA above 95%))”. In addition, the remaining activity at 100 µM at hMAO-B is more than 50%.
`CC(C)C[C@H](NC(=O)CCn1c(C#N)nc2ccccc21)B(O)O` [Compound 34]: the IC50 at β1 subunit of human cCP came to 3.2 ± 0.2 µM. Moreover, the “β2i (RA [%])” value on β2i subunit of human iCP (Table 6) is “NA (NA, Not active (RA above 95%))”. For the same molecule, on hMAO-B, the remaining activity at 100 µM is more than 50%.
Turning to `CC(C)C[C@H](NC(=O)CCCn1c(C#N)nc2ccccc21)B(O)O` [Compound 35], the IC50 at β1 subunit of human cCP was found to be 13 ± 2 µM. On β2i subunit of human iCP (Table 6), the “β2i (RA [%])” value is recorded as “NA (NA, Not active (RA above 95%))”. At hMAO-B, the remaining activity at 100 µM was more than 50%.
As to `CC(C)C[C@H](NC(=O)CCn1c(C#N)nc2cccc(Cl)c21)B1O[C@@H]2C[C@@H]3C[C@@H](C3(C)C)[C@]2(C)O1` [Compound 38], at β1 subunit of human cCP, the IC50 was 5 ± 0.1 µM. Further, the “β2i (RA [%])” value at β2i subunit of human iCP (Table 6) is given as “NA (NA, Not active (RA above 95%))”. Moreover, the remaining activity at 100 µM at hMAO-B was found to be 42%.
As to `CC(C)C[C@H](NC(=O)Cc1ccc2oc(C#N)nc2c1)B1O[C@@H]2C[C@@H]3C[C@@H](C3(C)C)[C@]2(C)O1` [Compound 39], the IC50 on β1 subunit of human cCP came out at 2.9 ± 0.4 µM. The “β2i (RA [%])” value at β2i subunit of human iCP (Table 6) is recorded as “NA (NA, Not active (RA above 95%))”. For the same molecule, the remaining activity at 100 µM at hMAO-B stood at 47 ± 1%.
For `CC(C)C[C@H](NC(=O)Cc1ccc2oc(C#N)nc2c1)B(O)O` [Compound 40], the IC50 at β1 subunit of human cCP stood at 3.7 ± 0.9 µM. Moreover, on β2i subunit of human iCP (Table 6), the “β2i (RA [%])” value is on record as “NA (NA, Not active (RA above 95%))”. The remaining activity at 100 µM at hMAO-B was 44%.
